Where “and” joins values, the source holds several entries; their conditions need not be identical. Identical values can stand only once. Toxic doses and inconclusive results are not listed. How the source made its calls: active means survival T/C of 150% or more; inactive means T/C below 125% in these data.
System: P388 leukemia ip, CD2F1 mice, survival T/C
Assay: NCI In Vivo Anticancer Drug Screen. Data for tumor model P388 Leukemia (intraperitoneal) in CD2F1 (CDF1) mice
Conditions: endpoint: median survival time, higher = longer survival
Outline: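 Mice carrying the transplanted tumor received test compound or vehicle. Survival was recorded in each group, and the value is the treated-group measurement divided by that of the vehicle-treated control group.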

[1] = dose: 100.0 mg/kg/injection, schedule: Q04DX002 (ip), vehicle: saline with Tween-80
[2] = dose: 200.0 mg/kg/injection, schedule: Q04DX002 (ip), vehicle: saline with Tween-80
[3] = dose: 50.0 mg/kg/injection, schedule: Q01DX005 (ip), vehicle: Klucel (hydroxypropylcellulose) (HPC)
[4] = dose: 100.0 mg/kg/injection, schedule: Q01DX005 (ip), vehicle: Klucel (hydroxypropylcellulose) (HPC)
[5] = dose: 200.0 mg/kg/injection, schedule: Q01DX005 (ip), vehicle: Klucel (hydroxypropylcellulose) (HPC)
[6] = dose: 60.0 mg/kg/injection, schedule: Q01DX005 (ip), vehicle: saline with Tween-80
[7] = dose: 120.0 mg/kg/injection, schedule: Q01DX005 (ip), vehicle: saline with Tween-80
[8] = dose: 240.0 mg/kg/injection, schedule: Q01DX005 (ip), vehicle: saline with Tween-80
[9] = dose: 100.0 mg/kg/injection, schedule: Q04DX003 (ip), vehicle: saline with Tween-80
[10] = dose: 200.0 mg/kg/injection, schedule: Q04DX003 (ip), vehicle: saline with Tween-80
[11] = dose: 25.0 mg/kg/injection, schedule: Q01DX009 (ip), vehicle: other
[12] = dose: 50.0 mg/kg/injection, schedule: Q01DX009 (ip), vehicle: other
[13] = dose: 100.0 mg/kg/injection, schedule: Q01DX009 (ip), vehicle: other
[14] = dose: 25.0 mg/kg/injection, schedule: Q01DX009 (ip), vehicle: Klucel (hydroxypropylcellulose) (HPC)
[15] = dose: 50.0 mg/kg/injection, schedule: Q01DX009 (ip), vehicle: Klucel (hydroxypropylcellulose) (HPC)
[16] = dose: 100.0 mg/kg/injection, schedule: Q01DX009 (ip), vehicle: Klucel (hydroxypropylcellulose) (HPC)
[17] = dose: 200.0 mg/kg/injection, schedule: Q01DX009 (ip), vehicle: Klucel (hydroxypropylcellulose) (HPC)

Measured: T/C

CCOc1ccc(-c2nn(C(=O)c3ccccc3)c(-c3ccccc3)c2N=Nc2ccc(S(=O)(=O)Nc3nnc(C)s3)cc2)cc1
inactive: [1] 93 % of control | [2] 89 % of control | dose: 400.0 mg/kg/injection, schedule: Q04DX002 (ip), vehicle: saline with Tween-80 93 % of control

O=C1c2ccccc2SCC12OC2c1ccc(Cl)cc1 (stereo not drawn)
inactive: [1] 95 % of control | [2] 90 % of control

Nc1[nH]c(=S)nc2nc3c4ccccc4c4ccccc4c3nc12
inactive: [3] 91 % of control | [4] 90 % of control | [5] 91 % of control

O=C(NNC(=S)NC1OCC(O)C(O)C1O)c1ccco1 (stereo not drawn)
inactive: [3] 99 % of control and 102 % of control | [4] 100 % of control and 102 % of control | [5] 104 % of control and 106 % of control | dose: 400.0 mg/kg/injection, schedule: Q01DX005 (ip), vehicle: Klucel (hydroxypropylcellulose) (HPC) 98 % of control

N/N=C1\C(Cl)=C(Cl)c2ccccc21
inactive: [3] 90 % of control | [4] 93 % of control | [5] 90 % of control

C=C1C(=O)OC2C(OC(C)=O)CCCC12 (stereo not drawn)
inactive: dose: 60.0 mg/kg/injection, schedule: Q01DX005 (ip), vehicle: Klucel (hydroxypropylcellulose) (HPC) 112 % of control | dose: 120.0 mg/kg/injection, schedule: Q01DX005 (ip), vehicle: Klucel (hydroxypropylcellulose) (HPC) 103 % of control | dose: 240.0 mg/kg/injection, schedule: Q01DX005 (ip), vehicle: Klucel (hydroxypropylcellulose) (HPC) 108 % of control

O=C(N/C(=C\c1ccc2c(c1)OCO2)c1nc2ccccc2s1)c1ccccc1
inactive: [6] 107 % of control | [7] 121 % of control | [8] 123 % of control

COc1ccc(/C=C2/Oc3c(Br)c(OC)cc(OC)c3C2=O)cc1
inactive: dose: 25.0 mg/kg/injection, schedule: Q01DX005 (ip), vehicle: Klucel (hydroxypropylcellulose) (HPC) 98 % of control | [3] 98 % of control | [4] 96 % of control | [5] 97 % of control

CCCCCCCC(O)CCCCCCC
inactive: dose: 100.0 mg/kg/injection, schedule: Q04DX003 (ip), vehicle: other 100 % of control | dose: 200.0 mg/kg/injection, schedule: Q04DX003 (ip), vehicle: other 100 % of control | dose: 400.0 mg/kg/injection, schedule: Q04DX003 (ip), vehicle: other 109 % of control

Nc1ncnc(N2C(=S)OC3C(O)C(CO)OC32)c1N (stereo not drawn)
inactive: dose: 25.0 mg/kg/injection, schedule: Q04DX003 (ip), vehicle: water 100 % of control | dose: 50.0 mg/kg/injection, schedule: Q04DX003 (ip), vehicle: water 95 % of control | dose: 100.0 mg/kg/injection, schedule: Q04DX003 (ip), vehicle: water 95 % of control | dose: 200.0 mg/kg/injection, schedule: Q04DX003 (ip), vehicle: water 113 % of control | dose: 400.0 mg/kg/injection, schedule: Q04DX003 (ip), vehicle: water 95 % of control

O=c1c2c([nH]c3c4c(ccc13)NCCC4)CCC2
inactive: dose: 50.0 mg/kg/injection, schedule: Q04DX002 (ip), vehicle: saline with Tween-80 95 % of control | [1] 94 % of control | [2] 92 % of control

O=[N+]([O-])c1ccc(-n2[nH]nnc2=S)cc1
inactive: dose: 50.0 mg/kg/injection, schedule: Q04DX003 (ip), vehicle: saline with Tween-80 98 % of control and 104 % of control | [9] 100 % of control and 104 % of control | [10] 98 % of control and 91 % of control

O=C(O)C1SCSC1C(=O)O (stereo not drawn)
inactive: [11] 94 % of control | [12] 100 % of control | [13] 90 % of control | dose: 200.0 mg/kg/injection, schedule: Q01DX009 (ip), vehicle: other 98 % of control

CC1(O)CC23CC1CCC2(C)C12CCCC(C)(C(=O)O1)C2CC3O (stereo not drawn)
inactive: dose: 12.5 mg/kg/injection, schedule: Q01DX009 (ip), vehicle: Klucel (hydroxypropylcellulose) (HPC) 99 % of control | [14] 100 % of control | [15] 108 % of control | [16] 103 % of control | [17] 100 % of control

CN(C)C1CC2CCCCC2CC1OC(=O)c1ccc([N+](=O)[O-])cc1 (stereo not drawn)
inactive: [9] 101 % of control | [10] 110 % of control | dose: 400.0 mg/kg/injection, schedule: Q04DX003 (ip), vehicle: saline with Tween-80 101 % of control

O=C(NCc1ccccn1)c1ccccc1
inactive: dose: 50.0 mg/kg/injection, schedule: Q01DX009 (ip), vehicle: saline 103 % of control | dose: 100.0 mg/kg/injection, schedule: Q01DX009 (ip), vehicle: saline 90 % of control | dose: 200.0 mg/kg/injection, schedule: Q01DX009 (ip), vehicle: saline 100 % of control

COC1=CC(=[N+]2CCCCC2)CC(C)(C)C1
inactive: dose: 25.0 mg/kg/injection, schedule: Q01DX005 (ip), vehicle: saline 98 % of control | dose: 50.0 mg/kg/injection, schedule: Q01DX005 (ip), vehicle: saline 100 % of control

CCOC1(NC(=O)N(C)C)C2CCCC21 (stereo not drawn)
inactive: [14] 97 % of control | [15] 97 % of control | [16] 94 % of control

S=c1cc[nH]c2ccccc12
inactive: dose: 6.25 mg/kg/injection, schedule: Q01DX009 (ip), vehicle: other 104 % of control | dose: 12.5 mg/kg/injection, schedule: Q01DX009 (ip), vehicle: other 104 % of control | [11] 96 % of control | [12] 112 % of control | [13] 110 % of control

CC1(C)CN(C(=S)N2CC(C)(C)SC2=O)C(=O)S1
inactive: [6] 108 % of control | [7] 98 % of control | [8] 104 % of control

C=C(C)C(=O)OCCn1c(=O)c2c(ncn2C)n(C)c1=O
inactive: [6] 96 % of control | [7] 101 % of control | [8] 92 % of control

O=C1Nc2ccccc2NC(=O)C(=C(c2ccccc2)c2ccccc2)C1=C(c1ccccc1)c1ccccc1
inactive: [6] 90 % of control | [7] 89 % of control | [8] 89 % of control

CCOC(=O)CCN(C(C)=O)C(CC(C)C)C(=O)OCC (stereo not drawn)
inactive: dose: 50.0 mg/kg/injection, schedule: Q01DX005 (ip), vehicle: saline with Tween-80 98 % of control | dose: 100.0 mg/kg/injection, schedule: Q01DX005 (ip), vehicle: saline with Tween-80 105 % of control | dose: 200.0 mg/kg/injection, schedule: Q01DX005 (ip), vehicle: saline with Tween-80 105 % of control

NCC(=O)c1ccc2oc3ccccc3c2c1
inactive: [16] 112 % of control | [17] 118 % of control
